Experimental data as given in ChEMBL document CHEMBL3120092, “Discovery of GS-9669, a thumb site II non-nucleoside inhibitor of NS5B for the treatment of genotype 1 chronic hepatitis C infection” (J Med Chem, 2014).

Columns and labels:
Hepatitis C virus [1] = experiment: Antiviral activity against Hepatitis C virus H77 genotype 1a infected in human HuH7 cells assessed as observed antiviral potency after 72 hrs by luciferase reporter gene assay; type: functional, organism-based, Hepacivirus hominis; details: genotype 1a H77, Huh-7, 72 h
Hepatitis C virus [2] = experiment: Antiviral activity against Hepatitis C virus H77 genotype 1a infected in human HuH7 cells assessed as intrinsic antiviral potency after 72 hrs by luciferase reporter gene assay; type: functional, organism-based, Hepacivirus hominis; details: genotype 1a H77, Huh-7, 72 h
[3] = Lipophilicity, log D of the compound by chromatography; type: physicochemical
[4] = Mean residence time in Sprague-Dawley rat at 0.4 mg/kg, iv; type: ADME, organism-based; design: dose 0.4 mg/kg, route intravenous; details: in vivo
[5] = Cytotoxicity against human MT4 cells after 5 days by Cell Titre Glo assay; type: cell-based
[6] = Intrinsic cytotoxicity against human MT4 cells after 5 days by Cell Titre Glo assay; type: cell-based
Hepatitis C virus [7] = experiment: Antiviral activity against Hepatitis C virus H77 genotype 1a infected in human HuH7 cells assessed as plasma adjusted antiviral potency after 72 hrs by luciferase reporter gene assay; type: functional, organism-based, Hepacivirus hominis; details: genotype 1a H77, Huh-7, Plasma
Hepatitis C virus [8] = experiment: Antiviral activity against HCV genotype 1 infected in human patient assessed as log10 reduction in viral RNA in plasma at 700 mg/kg, bid after 8 days; type: functional, Hepacivirus hominis
Hepatitis C virus [9] = experiment: Antiviral activity against Hepatitis C virus Con1 genotype 1b infected in human HuH7 cells after 72 hrs by luciferase reporter gene assay; type: functional, organism-based, Hepacivirus hominis; details: isolate Con1, Huh-7, 72 h
[10] = Cytotoxicity against human HuH7 cells after 3 days by Cell Titre Glo assay; type: cell-based, Huh-7
[11] = Fraction unbound in cell culture medium at 2 uM at pH 7.4 by equilibrium dialysis method; type: ADME
Hepatitis C virus [12] = experiment: Antiviral activity against HCV genotype 1b infected in human patient assessed as log10 reduction in viral RNA in plasma at 750 mg/kg, bid after 3 days; type: functional, Hepacivirus hominis
[13] = Mean residence time in Sprague-Dawley rat at 0.5 mg/kg, iv; type: ADME, organism-based; design: dose 0.5 mg/kg, route intravenous; details: in vivo
[14] = Half life in human patient infected with chronic HCV; type: ADME, organism-based; details: in vivo
Hepatitis C virus [15] = experiment: Selectivity ratio of EC50 for HCV genotype 1b harboring NS5B polymerase M423T mutant to EC50 for HCV genotype 1b harboring wild type NS5B polymerase; type: functional, Hepacivirus hominis
Hepatitis C virus [16] = experiment: Antiviral activity against HCV genotype 1b harboring wild type NS5B polymerase infected in human HuH7-Lunet cells by luciferase reporter gene assay; type: functional, organism-based, Hepacivirus hominis; details: Huh-7
Hepatitis C virus [17] = experiment: Antiviral activity against HCV infected in human patient assessed as log10 reduction in viral RNA in plasma at 500 mg/kg, qd after 3 days; type: functional, Hepacivirus hominis
Hepatitis C virus [18] = experiment: Antiviral activity against HCV genotype 1b harboring NS5B polymerase M423T mutant infected in human HuH7-Lunet cells by luciferase reporter gene assay; type: functional, organism-based, Hepacivirus hominis; details: Huh-7

Row | Structure (SMILES) | EC50 (Hepatitis C virus [1]) | EC50 (Hepatitis C virus [2]) | chromatographic logD [3] | MRT [4] | CC50 at 120 h [5] | CC50 at 120 h [6] | EC50 (Hepatitis C virus [7]) | FC (Hepatitis C virus [8]) | EC50 (Hepatitis C virus [9]) | CC50 at 72 h [10] | fraction unbound at 2 µM [11] | FC (Hepatitis C virus [12]) | MRT [13] | half-life [14] | Ratio EC50 (Hepatitis C virus [15]) | EC50 (Hepatitis C virus [16]) | FC (Hepatitis C virus [17]) | EC50 (Hepatitis C virus [18])
1 | CC(C)(C)C#Cc1cc(N(C(=O)[C@H]2CC[C@H](C)CC2)[C@H]2CC[C@H](Oc3ccc4nccn4n3)CC2)c(C(=O)O)s1 | 192 nM | 1.3 nM | 2.4 | 6.2 h | > 20000 nM | 133 nM | 1130 nM | – | – | – | – | – | – | – | – | – | – | –
2 | CCc1cc(CC[C@]2(C3CCCC3)CC(O)=C(Cc3nc4nc(C)cc(C)n4n3)C(=O)O2)cc(CC)n1 [FILIBUVIR] | – | – | – | – | – | – | – | 2.3 | – | – | – | – | – | – | – | – | – | –
3 | CC(C)(C)C#Cc1cc(N(C(=O)[C@H]2CC[C@H](C)CC2)[C@H]2CC[C@H](O)CC2)c(C(=O)O)s1 [LOMIBUVIR] | 13 nM | 2.8 nM | – | – | > 20000 nM | – | – | – | 6 nM | ≥ 20000 nM | 0.19 | 3.7 | – | – | – | – | – | –
4 | CC1=CC[C@H](C(=O)N(c2cc(C#CC(C)(C)C)sc2C(=O)O)[C@H]2CC[C@](O)(CO[C@H]3CCOC3)CC2)CC1 [RADALBUVIR] | 11 nM | 2.9 nM | – | – | > 20000 nM | 12100 nM | 128 nM | – | – | – | – | – | 2.7 h | 6 h | 2 | 6 nM | 3.6 | 14 nM
